Test results as given in patent US20260226055A1, “PYRAZOLE DERIVATIVES AS PHD INHIBITORS” (Oxford University Innovation Limited, priority 2023, published 2026).

Biological target: PHD2 (Homo sapiens, UniProt Q9GZT9)
Sequence (Q9GZT9 181-426): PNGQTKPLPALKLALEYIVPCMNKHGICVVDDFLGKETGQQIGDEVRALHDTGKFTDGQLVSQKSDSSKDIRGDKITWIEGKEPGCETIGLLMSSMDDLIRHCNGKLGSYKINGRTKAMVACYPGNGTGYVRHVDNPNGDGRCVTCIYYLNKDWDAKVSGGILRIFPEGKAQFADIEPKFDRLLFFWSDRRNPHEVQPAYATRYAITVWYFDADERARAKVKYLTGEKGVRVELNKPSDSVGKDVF
Assay: PHD2 RF-MS hydroxylation assay
Format: biochemical
Conditions: not given
Method: In brief, cDNA encoding for the catalytic domain of tPHD2 (181-426 residues) was cloned into the pET28a(+)/pET24a(+) vectors (Novagen), to enable production of tPHD2 (residues 181-426) protein with/without an N-terminal His6-tag. The tPHD2 (residues 181-426) encoding construct was transformed into the Escherichia coli BL21 DE3 cell line; protein production was induced with 0.5 mM […] (3-5 hr at 28° C.). […] The protein was exchanged into 50 mM Tris-HCl buffer (pH 7.5) and concentrated to % 40 mg/ml.
Tris(hydroxymethyl)aminomethane was from Fisher. […] All inhibition assays were carried out in 384-well polypropylene plates (Greiner Bio-One). […] PHD2 protein was prepared at a concentration of 300 nM in assay buffer and 25 μl dispensed across each 384-well assay plate. […] After loading the C4 SPE was washed with 0.1% formic acid in water to remove non-volatile buffer salts and then peptide was eluted from the SPE with 85% acetonitrile, 15% water containing 0.1% formic acid onto the mass spectrometer. Peptide charge states were monitored in positive mode. […] IC50 values were determined from non-linear regression plots using GraphPad prism.
SAR studies for PHD2 inhibition were carried out on the compounds of the invention. Compounds were screened against PHD2 using the RF-MS hydroxylation assay.
For `O=C(NCc1ccc(-c2ccccc2)cc1)c1ccc(-n2cccn2)cc1O` [Compound 16, N-([1,1′-biphenyl]-4-ylmethyl)-2-hydroxy-4-(1H-pyrazol-1-yl)benzamide], the IC50 was > 10 µM.
For `O=C(NCc1ccc(-c2ccccc2)cc1)c1cnc(-n2cccn2)nc1` [Compound 20, N-([1,1′-Biphenyl]-4-ylmethyl)-2-(1H-pyrazol-1-yl)pyrimidine-5-carboxamide], the IC50 was > 10 µM.
In the case of `O=C(NCc1ccc(-c2ccccc2)cc1)c1ccc(-n2cccn2)nc1` [Compound 22, N-([1,1′-Biphenyl]-4-ylmethyl)-6-(1H-pyrazol-1-yl)nicotinamide], the IC50 is reported as > 10 µM.
For `O=C(NCC1CCCCC1)c1cnc(-n2cccn2)cc1O` [Compound 44, N-(Cyclohexylmethyl)-4-hydroxy-6-(1H-pyrazol-1-yl)nicotinamide], the IC50 was > 10 µM.
For `COc1cc(-n2cc(C(=O)NCc3ccc(-c4ccccc4)cc3)cn2)ncc1C#N` [Compound 93], the IC50 was > 10 µM.
With `N#Cc1ccc(-n2cc(C(=O)NCc3ccc(-c4ccccc4)cc3)cn2)nc1` [Compound 97] the IC50 was > 10 µM.
For `O=C(O)c1ccnc(-n2cc(C(=O)NCc3ccc(-c4ccccc4)cc3)cn2)c1` [Compound 103], the IC50 was > 10 µM.
For `O=C(Nc1ccc(-c2ccccc2)cc1)c1cnn(-c2cc(O)ccn2)c1` [Compound 108], the IC50 was > 10 µM.

System: not listed separately
Assay: In vivo blood counts in C57BL/6 mice
Conditions: twice daily IP, 8 days
Method: Values are shown pre-treatment, and 4 and 8 days after treatment.
Blood samples were taken either pre-treatment, on the 4th day into treatment or on the 8th day of treatment. Blood samples were analysed using Celltac Alpha MEK-6500K.
Samples were taken either pre-treatment, on the 4th day into treatment or on the 8th day of treatment. Blood samples were analysed using Celltac Alpha MEK-6500K.
For `O=C(O)CNC(=O)C1C(=O)N(C2CCCCC2)C(=O)N(C2CCCCC2)C1=O` [Daprodustat], the adverse effects was “no adverse effects”.

System: HIF1-α in Hep3B cells
Assay: Immunoblots of Hep3B cells (HIF1-α protein levels)
Format: cell-based
Design: dose or concentration left out as unconfirmed
Conditions: 3 hours
Method: Cells were grown to 90% confluency.
Hep3B cells were treated with compounds 117, 119, 122 and 123 of the invention (Examples 93, 95, 98 and 99) at 100 µM (A) and 20 µM (B) PHD inhibitors for 3 hours.
For `O=C(NCc1ccc(-c2ccccc2)cc1)c1cnc2c(cnc3ccnn32)c1O` [Compound 117, N-([1,1′-Biphenyl]-4-ylmethyl)-6-hydroxypyrazolo[1,5-a]pyrido[3,2-e]pyrimidine-7-carboxamide], the “HIF-1α stabilisation (immunoblot)” value was “stabilise HIF-1α”.
In the case of `O=C(Nc1ccc(-c2ccccc2)cc1)c1cnc2c(cnc3ccnn32)c1O` [Compound 119, N-([1,1′-Biphenyl]-4-yl)-6-hydroxypyrazolo[1,5-a]pyrido[3,2-e]pyrimidine-7-carboxamide], the “HIF-1α stabilisation (immunoblot)” value is reported as “stabilise HIF-1α”.
With `Cc1cc2nc(C)c3c(O)c(C(=O)NCc4ccc(-c5ccccc5)cc4)cnc3n2n1` [Compound 122, N-([1,1′-Biphenyl]-4-ylmethyl)-6-hydroxy-2,5-dimethylpyrazolo[1,5-a]pyrido[3,2-e]pyrimidine-7-carboxamide] the “HIF-1α stabilisation (immunoblot)” value was “stabilise HIF-1α”.
In the case of `Cc1cc2nc(C)c3c(O)c(C(=O)NCc4ccc(C(F)(F)F)cc4)cnc3n2n1` [Compound 123, 6-Hydroxy-2,5-Dimethyl-N-(4-(trifluoromethyl)benzyl)pyrazolo[1,5-a]pyrido[3,2-e]pyrimidine-7-carboxamide], the “HIF-1α stabilisation (immunoblot)” value is reported as “stabilise HIF-1α”.

System: not given
Assay: not given
Conditions: mouse, in vivo, ip
For `O=C(NCC1CCC(C(F)(F)F)CC1)c1cnc(-n2cccn2)cc1O` (centres unmarked) [Compound 68, 4-Hydroxy-6-(1H-pyrazol-1-yl)-N-((4-(trifluoromethyl)cyclohexyl)methyl)nicotinamide], the adverse effects was “no adverse effects”.
